Data from paper PMC9681850, “Structural basis of synthetic agonist activation of the nuclear receptor REV-ERB” (Nature Communications, 2022).
Several values for one entry are separate records, joined by “and”; a condition that tells them apart may be missing. Identical values can stand only once.

Key:
BMAL1 in HepG2 cells = assay: expression of BMAL1 by qPCR; assay type: cell-based, human; design: key: Bmal1 expression normalized to Ppia; conditions: 5 μM, 24 h, single replicates (n = 4)
From the text: We next determined whether STL1267 can regulate characterized REV-ERB modulated genes in cell lines expressing REV-ERB naturally. Five micromolar doses of both drugs were used in cell-based experiments from this point on. REV-ERB is an established component of the core molecular clock repressing the expression of core clock gene Bmal1[6],[27] as well as others[28],[29]. […] In skeletal muscle, REV-ERB agonism increases the expression of a wide variety of genes important in mitochondrial function.
The human hepatocellular carcinoma cell line, HepG2 cells (ATCC HB-8065), were cultured in 10% FBS 1% L-Glu MEM at 37 °C in a humidified atmosphere of 5% CO2. Prior to RNA extraction cells were treated with either DMSO or REV-ERB agonist for 24 h. The C2C12 proliferating mouse myoblast cells (ATCC, CRL-1772) were cultured in 10% FBS DMEM at 37 °C in a humidified atmosphere of 5% CO2. Prior to RNA extraction cells were treated with either DMSO or REV-ERB agonist for 24 h. Prior to crystal violet cytotoxicity assay, cells were treated with either DMSO or REV-ERB agonist for 48 h.
Mouse tissue was homogenized using a bullet blender. DNA/protein was removed by phase separation using BCP/chloroform. The supernatant (RNA containing fraction) was collected, and RNA was precipitated using isopropanol. The RNA pellets were washed with 75% ethanol and resolubilized in RNAse free water. […]

[1] = mouse liver microsome stability assay; assay type: in vitro ADME; conditions: liver microsomes
From the text: We thank the reviewers for the constructive comments, and we have responded to each of the […]
Overall, this is a commendable structure-function study on the transcriptional repressor, REV-ERBα. It includes the identification of an agonist that belongs to the non-heme class of small ligands. The study combines cell-based and in vitro, in vivo, and crystallographic analyses of the ligand-receptor molecular complex.
However, as a spring-board for therapeutic drug discovery, there are a few additional issues that may need to be clarified.
1. In the HEK293 2-hybrid assay, the ERB agonists are described as activators of transcription.
Perhaps, they would be more appropriately described as 'repressors'.
We have updated the manuscript to clarify this issue. In the original manuscript, we used the following to describe how the 2-hybrid assay switches agonists from repressors to activators to allow for better resolution of activity, “This format of the assay essentially functions as a mammalian 2-hybrid assay and detects REVERB agonists as activators of transcription effectively enhancing the sensitivity of such an assay from the typical one hybrid system that detects enhancement of transcriptional repression.” […]

[2] = biological target: kappa opioid receptor (KOR) (Homo sapiens, UniProt P41145); assay: PDSP radioligand binding assay; conditions: secondary full displacement curve, read-out: RLBA Ki
From the text: (§1) We assessed the specificity of STL1267 using both in house nuclear receptor Gal4-NR reporter assays and the NIMH Psychoactive Drug Screening Program (PDSP) assays. We assessed the specificity of STL1267 in the PDSP’s radioligand displacement assays, screening for binding to off-target GPCRs, ion channels, transporters, and other drug targets (Table S1). Of the 43 targets assessed in this panel, we observed no detectable binding in 41 of them. […] Additional assessment in serotonin transporter and kappa opioid receptor activity in a functional assay may be warranted to determine absolute specificity. […]
(§2) Receptor RLBA Ki Receptor activity
(§3) Suppl ementary Tabl e 1. Speci fi ci ty of STL1267. […]

[3] = biological target: serotonin transporter (SERT) (Homo sapiens, UniProt P31645); assay: PDSP radioligand binding assay; conditions: secondary full displacement curve, read-out: RLBA Ki
From the text: as §1, §2, §3

[4] = system: REV-ERBα F497A, F443A, L480A, F439A, and F484A; assay: two-hybrid reporter assay with mutant receptors; assay type: cell-based, human; conditions: F484A vs WT
Description: The removal of the bulkier Phe488 sidechain may allow for the ligand binding pocket to wrap around the ligand more tightly, which may explain the higher activity of this mutant REV-ERB.
The NCoR-Vp16 plasmid and REV-ERBα/β-FL GAL4-DBD wild-type or point mutation plasmids were incubated with the transfection agent, Lipofectamine 2000. GFP plasmid was also in the transfection mix to confirm transfection efficiency. HEK cells were plated in 10 cm dishes for western blot analysis, and HEK UAS-luc cells were plated in 96 well plates for luciferase assay analysis. Prior to cellular adherence, transfection mix was added. The cells and transfection mix were incubated at 37 °C in a humidified atmosphere of 5% CO2. The transfection incubation lasted overnight for luciferase assays and 48 h for protein isolation/western blot analysis. For luciferase assays, REV-ERB agonists were added in an 11-point serial dilution the day following overnight transfection. Cells were incubated with the compound for 24 h, prior to luciferin addition and luminescence read out.

Sequence of serotonin transporter (SERT) (P31645 whole entry, species assumed): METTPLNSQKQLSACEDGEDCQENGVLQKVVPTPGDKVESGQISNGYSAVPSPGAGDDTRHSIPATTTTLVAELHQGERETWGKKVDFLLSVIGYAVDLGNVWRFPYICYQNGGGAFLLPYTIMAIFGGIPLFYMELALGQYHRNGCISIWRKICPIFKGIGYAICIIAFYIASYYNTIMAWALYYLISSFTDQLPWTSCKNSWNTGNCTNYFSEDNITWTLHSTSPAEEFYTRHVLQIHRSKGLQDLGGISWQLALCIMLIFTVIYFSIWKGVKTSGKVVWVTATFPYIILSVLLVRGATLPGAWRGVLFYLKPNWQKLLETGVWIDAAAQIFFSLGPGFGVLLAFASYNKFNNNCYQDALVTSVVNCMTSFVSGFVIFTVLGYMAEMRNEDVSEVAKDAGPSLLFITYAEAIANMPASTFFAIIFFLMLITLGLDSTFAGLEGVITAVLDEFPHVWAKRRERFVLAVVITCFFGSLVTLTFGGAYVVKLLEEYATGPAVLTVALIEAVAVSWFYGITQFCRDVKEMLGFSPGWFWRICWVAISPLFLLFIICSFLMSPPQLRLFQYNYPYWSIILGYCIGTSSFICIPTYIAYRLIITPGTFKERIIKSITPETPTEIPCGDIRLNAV
Sequence of kappa opioid receptor (KOR) (P41145 whole entry, the tested form may be a part): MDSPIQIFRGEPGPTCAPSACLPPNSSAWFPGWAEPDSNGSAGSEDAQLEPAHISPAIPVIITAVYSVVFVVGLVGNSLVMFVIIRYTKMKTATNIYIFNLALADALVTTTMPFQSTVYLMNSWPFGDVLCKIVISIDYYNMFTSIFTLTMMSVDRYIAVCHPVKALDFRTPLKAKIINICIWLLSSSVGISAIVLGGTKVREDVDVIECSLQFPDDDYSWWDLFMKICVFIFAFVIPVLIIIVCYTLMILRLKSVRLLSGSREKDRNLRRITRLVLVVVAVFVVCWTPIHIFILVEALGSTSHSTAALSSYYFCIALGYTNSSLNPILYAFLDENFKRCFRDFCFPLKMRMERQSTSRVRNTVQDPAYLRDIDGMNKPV

half-life [1]: 34 min
Ki [2]: 720 nM
Ki [3]: 2000 to 4000 nM and 2100 nM
effect of mutation on STL1267 induced REV-ERBα/NCoR interaction [4]: loss or severe reduction in activity
Structure (SMILES): Clc1nnc2ccc(Oc3ccccc3-c3ccccc3)nn12 [STL1267]
Bmal1 (Fig. 2c) expression (BMAL1 in HepG2 cells): attenuated the expression and 0.5800 and 0.6760 and 0.6148 and 0.7607
